In PMC5283573 (Biochemistry, 2016):

Key:
[1] = molecular target: T1, imidazole glycerol phosphate synthase (IGPS), HisH-HisF heterodimer (Thermotoga maritima, UniProt Q9X0C6+Q9X0C8); assay: isothermal titration calorimetry; format: binding
[2] = molecular target: T1, imidazole glycerol phosphate synthase (IGPS), HisH-HisF heterodimer; assay: glutaminase assay, coupled glutamate dehydrogenase/APAD; format: biochemical

Kd [1]: 1500 ± 300 µM | Ki [2]: 900 ± 70 µM
Structure (SMILES): CCC(CNCCO)Nc1nc2c(c(=O)n(C)c(=O)n2C)n1Cc1ccccc1 (centres unmarked) [compound 3, 7-benzyl-8-[(1-{[(2-hydroxyethyl)amino]methyl}propyl)amino]-1,3-dimethyl-2,3,6,7-tetrahydro-1H-2,6-purinedione]
